Test results reported in US10214520B2, “Substituted azaspiro(4.5)decane derivatives” (priority 2014, dated 2019).
Read-outs that look alike come from different tables or passages of the source.

How the values were obtained:
human μ opiate receptor = human μ opiate receptor (Homo sapiens, UniProt P35372); assay: μ opiate receptor binding assay with [3H]-naloxone, membrane preparation of CHO-K1 cells (WGA-SPA beads)
[1] = mean, read-out: Ki (μ) mean [μm]

Chain of human μ opiate receptor (P35372 whole entry): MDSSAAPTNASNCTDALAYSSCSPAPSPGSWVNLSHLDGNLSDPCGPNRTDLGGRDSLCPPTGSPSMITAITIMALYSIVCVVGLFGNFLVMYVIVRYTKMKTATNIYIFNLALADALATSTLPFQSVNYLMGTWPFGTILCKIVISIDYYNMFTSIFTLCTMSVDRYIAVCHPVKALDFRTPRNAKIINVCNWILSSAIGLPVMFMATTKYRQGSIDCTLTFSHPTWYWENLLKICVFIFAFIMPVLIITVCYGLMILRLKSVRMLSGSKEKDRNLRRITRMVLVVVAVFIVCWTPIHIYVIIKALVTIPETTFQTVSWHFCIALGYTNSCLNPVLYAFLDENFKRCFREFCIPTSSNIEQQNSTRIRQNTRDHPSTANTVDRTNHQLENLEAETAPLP

| Compound | Ki (human μ opiate receptor; [1]) [µM] | Ki (human μ opiate receptor; read-out: MOP Ki) [µM] | other results |
| --- | --- | --- | --- |
| Cc1ccc(C2(N(C)C)CCC3(CC2)CC(=O)N(C(=O)OC(C)(C)C)C3)s1 (stereo not shown) | – | – | melting point: 165 to 167 °C |
| CN(C)C1(C(=O)c2ccccc2)CCC2(CCN(Cc3ccccc3)C2)CC1 (single isomer, unassigned) [Example No. 70, [3-Benzyl-8-(dimethylamino)-3-azaspiro[4.5]decan-8-yl]-phenylmethanone] | 0.465 | – | – |
| CN(C)C1(C(=O)c2cccs2)CCC2(CCN(Cc3ccccc3)C2)CC1 (single isomer, unassigned) [Example No. 71, [3-Benzyl-8-(dimethylamino)-3-azaspiro[4.5]decan-8-yl]-thiophen-2-ylmethanone] | 0.127 | – | – |
| CN(C)C1(C(=O)c2cccs2)CCC2(CCN(Cc3ccccc3)C2)CC1 (single isomer, unassigned) [Example No. 72, [3-Benzyl-8-(dimethylamino)-3-azaspiro[4.5]decan-8-yl]-thiophen-2-ylmethanone] | 0.805 | – | – |
| CN(C)C1(c2cccs2)CCC2(CCN(Cc3ccncc3)C2=O)CC1 (stereo not shown) [Example 85] | 0.26 | – | – |
| CCCCC1(N(C)C)CCC2(CC1)CC(=O)N(Cc1ccccc1)C2 (stereo not shown) [Example No. 124, 3-Benzyl-8-butyl-8-(dimethylamino)-3-azaspiro[4.5]decan-2-one] | 2.97 | – | – |
| CN(C)[C@]1(c2cnccn2)CC[C@]2(CC1)CC(=O)N(CCCC(N)=O)C2 [SC-1010, Cis-4-(8-Dimethylamino-3-oxo-8-pyrazin-2-yl-2-azaspiro[4.5]decan-2-yl)-butyramide] | – | 0.825 | – |
| CN(C)[C@]1(c2ccccn2)CC[C@]2(CC1)CC(=O)N(CCCC(N)=O)C2 [SC-1013, Cis-4-(8-Dimethylamino-3-oxo-8-pyridin-2-yl-2-azaspiro[4.5]decan-2-yl)-butyramide] | – | 2.43 | – |
| COC(=O)c1ccc(N2C[C@]3(CC[C@@](c4ccccc4)(N(C)C)CC3)CC2=O)cc1 [SC-1074, Cis-4-(8-Dimethylamino-3-oxo-8-phenyl-2-azaspiro[4.5]decan-2-yl)-benzoic acid methyl ester] | – | 0.42 | – |
| CN(C)[C@]1(c2ccccc2)CC[C@]2(CC1)CC(=O)N(CC(C)(C)C(=O)NCCc1cncnc1)C2 [SC-1184, Cis-3-(8-Dimethylamino-3-oxo-8-phenyl-2-azaspiro[4.5]decan-2-yl)-2,2-dimethyl-N-(2-pyrimidin-5-yl-ethyl)-propionamide] | – | 0.32 | – |
